Laboratory results: US10662475B2, “Compositions and methods for the treatment and prevention of antipsychotic medication-induced weight gain” (Centre for Addiction and Mental Health, priority 2014, dated 2020)
Blank lines part the entries; values can stand above or below the compound they belong to.

Assays:
[1] = for weight gain (% change from baseline weight): total sample, European ancestry subjects with schizophrenia or schizoaffective disorder, by antipsychotic, mean ± SD
Description: Our sample comprised 66 European ancestry subjects aged 18-60 years with schizophrenia or schizoaffective disorder according to Diagnostic and Statistical Manual of Mental Disorders, Third Edition, Revised, or Fourth Edition (DSM-IIIR or DSM-IV) criteria.
Patients with a history of treatment refractory schizophrenia or schizoaffective disorder, or intolerance to typical antipsychotics, were treated with clozapine for 6 weeks and assessed for response and weight gain. These patients had never received a second generation antipsychotic prior to enrollment in the study, and underwent a 7-14 day washout period where they received no antipsychotic medication prior to receiving clozapine.
All analyses were done using R version 2.15.1 statistical software (R Core Team, 2012), with the rms package. Categorical variables were compared across study centres using Pearson chi-square test and continuous variables were compared using ANOVA, unless the assumptions of these tests were violated in which case Fisher's exact test and the Kruskal-Wallis test were used. Linear regression was used to test for differences in weight gain (% change from baseline weight) between genotypic groups using additive genotypic model with adjustment for relevant covariates.

[2] = adjunct treatment, human studies; cited from earlier work
TSPO = molecular target: T1, TSPO (Mus musculus, UniProt P50637); conditions: high-fat diet induced obese mice; cited from earlier work
T1 construct: host or cells: high-fat diet induced obese mice (in vivo)

[3] = Antipsychotic-induced weight change, orexin receptor (HCRTR1/HCRTR2) SNP association study; format: in vivo, human; conditions: Sample HYM n = 74, all on clozapine, 6 weeks
Source text: Written informed consent was obtained from all participants. […] Exclusion criteria for these studies included pregnancy, organic brain disorder, severe head injuries, previous medical conditions which required treatment and were not stable (Hepatitis C, HIV, Thyroid disorder or diabetes mellitus), substance dependence, clinically relevant mental retardation and severe personality disorder.
Genomic DNA was extracted from blood samples using the high-salt method (Lahiri and Nurnberger 1991). […] A total of 5 tagSNPs covering a 20 kb region including HCRTR1 (˜9.6 kb) and 28 tagSNPs covering 120 kb including HCRTR2 (˜108 kb) were included in this study.
Analysis of covariance (ANCOVA) was used to test association between genotype and weight change (%) from baseline as the dependent variable, genotypes as fixed factor and, baseline weight and duration of treatment as covariates. Corrections for multiple tests were calculated using Single Nucleotide Polymorphism Spectral Decomposition (SNPSpD, (Nyholt 2004)). Power calculations were performed using Quanto 1.2.4 (Gauderman and Morrison 2006). Assuming a minor allele frequency of 0.25 and a sample size of n=130, we had more than 80% power to detect a mean difference of 3.6% between carriers and non-carriers of the risk genotype in an additive or dominant model.

[4] = total sample N=128, patients treated with clozapine, risperidone, olanzapine or haloperidol
GLP-1 = conditions: rat models; effects seem to occur after a longer treatment period; cited from earlier work

- weight gain (% change from baseline weight) [1]: −4.17%±15.2
Structure (SMILES): O=C(CCCN1CCC(O)(c2ccc(Cl)cc2)CC1)c1ccc(F)cc1 [haloperidol]

Structure (SMILES): CC(=O)[C@H]1CC[C@H]2[C@@H]3CC=C4C[C@@H](O)CC[C@]4(C)[C@H]3CC[C@]12C [pregnenolone]
- symptoms of schizophrenia [2]: improves symptoms of schizophrenia

Structure (SMILES): CCC(C)N(C)C(=O)c1cc2ccccc2c(-c2ccccc2Cl)n1 (centres unmarked) [PK1195]
- lipid accumulation in the liver, free and LDL cholesterol, and blood glucose levels (TSPO): significantly lowered

- Weight gain <7%, n (%) [3]: 47 (63.5) n (%)
- Weight gain ≥7%, n (%) [3]: 27 (36.5) n (%)
- Weight change ([3]; mean ± SD): 3.76 ± 4.4 kg
- Weight change (%) ([3]; mean ± SD): 5.35 ± 6.3%
- weight gain [4]: highest weight gain
- Weight change ± SD (%) ([1]; Sample HYM n = 54, all on clozapine, 6 weeks): 3.84 ± 5.8%
- weight gain (% change from baseline weight) [1]: 3.99%±5.8
Structure (SMILES): CN1CCN(C2=Nc3cc(Cl)ccc3Nc3ccccc32)CC1 [clozapine]

Structure (SMILES): OCCOCCN1CCN(C2=Nc3ccccc3Sc3ccccc32)CC1 [quetiapine]
- GLP-1 levels (GLP-1): decrease GLP-1 levels
